The text below walks through data of patent publication US20070232577A1, “Synthetic pentacyclic triterpenoids and derivatives of betulinic acid and betulin” (Advanced Life Sciences, Inc., priority 2006, published 2007).

One data set relates to SK-MEL-2 cells. Description: Caspase activation assay, SK-MEL-2. In kind it is cell-based. The settings on record: SK-MEL-2. How it is done:
All treatments were performed in duplicate. […] Cells were incubated at 37° C. for 8 h. Caspase assay reagent (per 96-well plate) was prepared according to manufacturer's instructions (Homogeneous Caspases Assay, fluorometric, Roche) by combining 6.3 mL Incubation Buffer with 0.7 mL of Substrate Stock Solution. Caspase assay reagent (70 μL) was added to each well; the plate was gently shaken by hand for 15-20 seconds and incubated at 37° C. for 4 h.
Fluorescent emission was measured at 535 nm on a plate reader using the “homogeneous caspase” program (excitation Wavelength=490 nm, emission wavelength=535 nm). Duplicate wells for each treatment were averaged following background (no cells) subtraction (emission 535 nm value from all experimental emission 535 nm values) for each drug concentration.
DMSO treatment represented baseline caspase activation in the absence of drug. The percent changes in caspase activity were plotted on the y-axis for each drug treatment.
Caspase activation assays were conducted to further characterize the mode of cell death. A treatment time and dose at which maximum caspase activation was observed prior to massive cell destruction would be indicative of apoptosis induction. SK-MEL-2 cells were treated with 5, 15, and 50 μM of the compound for 2, 4, 6, 8, 16, and 24 h in the absence of FBS (Fetal Bovine Serum).

Another data set deals with A-375 (melanoma). The experiment in a line: MTS cell viability assay, A-375. In kind it is cell-based. The settings on record: Homo sapiens, 72 h. As for the experimental part:
(§1) All treatments were performed in triplicate. […] Cells were incubated at 37° C. for 72 h.

The next data set concerns LN-229 (glioblastoma). Description: MTS cell viability assay, LN-229. In kind it is cell-based. The note with it: Homo sapiens, 72 h. How it is done: as §1
The subject of data set [1] is OVCAR-3 (ovarian carcinoma). Description: MTS cell viability assay, OVCAR-3. In kind it is cell-based. The settings on record: Homo sapiens, 72 h. How it is done: as §1
On the technique in general: Tetrazolium assays rely on reduction of a dye to a coloured formazan, in cell work by metabolically active cells.

In another data set the test system is HT-29 (colon carcinoma). Description: MTS cell viability assay, HT-29. In kind it is cell-based. The note with it: Homo sapiens, 72 h. How it is done:
as §1

The test system of another data set is MCF-7 (breast carcinoma). Description: MTS cell viability assay, MCF-7. The data set is classed as cell-based. The note with it: Homo sapiens, MCF7, 72 h. As for the experimental part:
as §1

A further data set has as its system Daoy (glioblastoma). Description: MTS cell viability assay, Daoy. The note with it: for IC50: Homo sapiens, Daoy, 72 h, read-out: IC50 Daoy.
The subject of a further data set is SK-MEL-2 (melanoma). Description: MTS cell viability assay, SK-MEL-2. The note with it: Homo sapiens, SK-MEL-2, 72 h, read-out: IC50 SK-MEL-2.
The subject of data set [2] is SK-MEL-2, A-375, Daoy, LN-229, OVCAR-3, HT-29, MCF-7 cell lines. The data set is classed as cell-based. How it is done: as §1

Molecules are shown by their SMILES. Converted amounts (≈) assume the structure as drawn. Some results are limits rather than exact numbers.

Protocol for Daoy (glioblastoma): Cells were plated, the evening before treatment, for each treatment on 96-well plates (1×10^4 cells/well) in 100 μL volume per well. Drug solutions were prepared by diluting each test compound in DSMO (10 mM) with the appropriate cell growth media for each individual cell line, or in “Universal Media” if several cell lines were to be assayed in parallel, immediately prior to cell treatment. Universal Media consisted of 5 mL sodium pyruvate (100×liquid stock, CellGro), 5 mL glucose (100×, 45% liquid stock, CellGro), 5 mL Penicillin/Streptomycin (100×liquid stock, CellGro), 10 mL sodium bicarbonate (50×liquid stock, CellGro), 25 mL Fetal Calf Serum, 1.25 mL insulin (4 mg/mL, Gibco) and 449 mL RPMI media with 2 mM glutamine for a total volume of 500 mL. Cells were treated by aspirating media from each well and adding 80 μL of each drug solution to the attached cells. All treatments were performed in triplicate. Growth media (80 μL) were added to 3 blank wells (no cells) to measure background from the growth media Growth media alone (no DMSO or test compond) was added to 2 wells containing cells to measure the baseline MTS activity and vehicle (DMSO) control solutions were also included to monitor basal toxicity from DMSO. Cells were incubated at 37° C. for 72 h. MTS reagent (per 96-well plate) were prepared by combining 2 mL of MTS working solution (Cell Titer AQueous Non-Radioactive Cell Proliferation Assay, Promega, cat#G1112), 100 μL of 0.92 mg/mL phenazine methosulfate/Dulbecco's PBS and 2.1 mL growth media. MTS reagent (40 μL) were added to each well and incubated at 37° C. for 1.5 to 4 h. Plates were gently shaken by hand until solution in each well appeared homogenous. Absorbances at 490 nm were measured on a plate reader at multiple time points following the addition of MTS reagent for each plate. Triplicate absorbance (490 nm) measurements were averaged following background (no cell) subtraction for each drug concentration. Percent Cell Viability was calculated for each drug concentration using the following equation: {[Absorbances(drug treated)]/[Absorbances(DMSO treated)]}×100%
Percent viability (y-axis) was plotted against drug concentration (x-axis) and the resulting graph was used to determine the 50% inhibitory concentration (IC50) for each drug.

As for `C=C(C)[C@@H]1CC[C@]2(CO)CC[C@]3(C)[C@H](CC[C@@H]4[C@@]5(C)CC6=C(ON(O)C6)C(C)(C)[C@@H]5CC[C@]43C)[C@@H]12` [Compound 33, (1R,3aS,5aR,5bR,7aR,12aR,12bR,14aR,14bR)-3a-(hydroxymethyl)-1-isopropenyl-5a,5b,8,8,12a-pentamethyl-1,2,3,3a,4,5,5a,5b,6,7,7a,8,11,12,12a,12b,13,14, 14a,14b-icosahydro-10H-cyclopenta[7,8]chryseno[3,2-d]isoxazol-10-ol], the “caspase activation in SK-MEL-2 (in words)” value in the data set with SK-MEL-2 cells was “induced caspase activation”.

As for `CC(C)[C@@H]1CC[C@]2(COC(=O)CBr)CC[C@]3(C)[C@H](CC[C@@H]4[C@@]5(C)Cc6cnoc6C(C)(C)[C@@H]5CC[C@]43C)[C@@H]12` [Compound 50, [(1S,3aS,5aR,5bR,7aR,12aR,12bR,14aR,14bR)-1-isopropyl-5a,5b,8,8,12a-pentamethyl-1,2,3,4,5,5a,5b,6,7,7a,8,12,12a,12b,13,14,14a, 14b-octadecahydro-3aH-cyclopenta[7,8]chryseno[3,2-d]isoxazol-3a-yl]methyl bromoacetate], the IC50 – broadly, the point on the concentration scale where inhibition reaches its midpoint – worked out at 25 µg/mL (≈ 42.5 µM) with A-375 (melanoma); 48 µg/mL (≈ 81.5 µM) in the data set on LN-229 (glioblastoma); 42 µg/mL (≈ 71.3 µM) in data set [1]; 40 µg/mL (≈ 67.9 µM) in the data set with HT-29 (colon carcinoma); 50 µg/mL (≈ 84.9 µM) in the data set on MCF-7 (breast carcinoma); 4 µg/mL (≈ 6.79 µM) in the data set on Daoy (glioblastoma). Further, the 50% inhibitory concentration (IC50) with SK-MEL-2 (melanoma) was more than 75 µg/mL.

For `C=C(C)[C@@H]1CC[C@]2(C=O)CC[C@]3(C)[C@H](CC[C@@H]4[C@@]5(C)CCC(=O)C(C)(C)[C@@H]5CC[C@]43C)[C@@H]12` [Compound 66, (1R,3aS,5aR,5bR,7aR,11aR,11bR,13aR,13bR)-5a,5b,8,8,11a-pentamethyl-9-oxo-1-(prop-1-en-2-yl)icosahydro-1H-cyclopenta[a]chrysene-3a-carbaldehyde], the IC50 with A-375 (melanoma) came out at 15 µg/mL (≈ 34.2 µM); in the data set with LN-229 (glioblastoma), 35 µg/mL (≈ 79.8 µM); in data set [1] it was 20 µg/mL (≈ 45.6 µM); in the data set on HT-29 (colon carcinoma), 21 µg/mL (≈ 47.9 µM); in the data set on MCF-7 (breast carcinoma), 38 µg/mL (≈ 86.6 µM); in the data set on Daoy (glioblastoma), 6 µg/mL (≈ 13.7 µM). For the same compound, in the data set on SK-MEL-2 (melanoma), the IC50 turned out to be 28 µg/mL (≈ 63.8 µM). Moreover, the “selectivity of cytotoxicity for Daoy (in words)” value in the data set on Daoy (glioblastoma) (MTS assay, Daoy versus other cell lines) is given as “selective toxicity towards Daoy”.

For the compound `C=C(C)[C@@H]1CC[C@]2(COC(=O)COC)CC[C@]3(C)[C@H](CC[C@@H]4[C@@]5(C)CC[C@H](OC(C)=O)C(C)(C)[C@@H]5CC[C@]43C)[C@@H]12` [Compound 19, ((1R,3aS,5aR,5bR,7aR,9S,11aR,11bR,13aR,13b R)-9-acetoxy-5a,5b,8,8,11a-pentamethyl-1-(prop-1-en-2-yl)icosahydro-1H-cyclopenta[a]chrysen-3a-yl)methyl 2-methoxyacetate], the IC50 is 7 µg/mL (≈ 12.6 µM) with A-375 (melanoma); more than 75 µg/mL in the data set on LN-229 (glioblastoma); more than 75 µg/mL in data set [1]; more than 75 µg/mL in the data set with HT-29 (colon carcinoma); more than 75 µg/mL in the data set with MCF-7 (breast carcinoma); 7 µg/mL (≈ 12.6 µM) in the data set with Daoy (glioblastoma). Moreover, the IC50 with SK-MEL-2 (melanoma) amounted to 6 µg/mL (≈ 10.8 µM).

`CC(C)[C@@H]1CC[C@]2(CO)CC[C@]3(C)[C@H](CC[C@@H]4[C@@]5(C)Cc6cnoc6C(C)(C)[C@@H]5CC[C@]43C)[C@@H]12` [Compound 49, [(1S,3aS,5aR,5bR,7aR,12aR,12bR,14aR,14bR)-1-isopropyl-5a,5b,8,8,12a-pentamethyl-1,2,3,4,5,5a,5b,6,7,7a,8,12,12a,12b,13,14,14a, 14b-octadecahydro-3aH-cyclopenta[7,8]chryseno[3,2-d]isoxazol-3a-yl]methanol]: the IC50 in the data set on A-375 (melanoma) was 10 µg/mL (≈ 21.4 µM); in the data set on LN-229 (glioblastoma), more than 75 µg/mL; in data set [1], 50 to 75 µg/mL (≈ 107 to 160 µM); in the data set with HT-29 (colon carcinoma) it was 50 to 75 µg/mL (≈ 107 to 160 µM); in the data set with MCF-7 (breast carcinoma) it was more than 75 µg/mL; in the data set with Daoy (glioblastoma), 4 µg/mL (≈ 8.55 µM). Also, the IC50 in the data set on SK-MEL-2 (melanoma) stood at 6 µg/mL (≈ 12.8 µM).

Take `C=C(C)[C@@H]1CC[C@]2(COC(=O)COCC)CC[C@]3(C)[C@H](CC[C@@H]4[C@@]5(C)C=C(C#N)C(=O)C(C)(C)[C@@H]5CC[C@]43C)[C@@H]12` [Compound 40, ((1R,3aS,5aR,5bR,7aR,11aR,11bR,13aR,13bR)-10-cyano-5a,5b,8,8,11a-pentamethyl-9-oxo-1-(prop-1-en-2-yl)-2,3,3a,4,5,5a,5b,6,7,7a,8,9,11a,11b,12,13,13a,13b-octadecahydro-1H-cyclopenta[a]chrysen-3a-yl)methyl 2-ethoxyacetate]: the IC50 was determined as 6 µg/mL (≈ 10.9 µM) in the data set with A-375 (melanoma); 28 µg/mL (≈ 50.9 µM) with LN-229 (glioblastoma); 10 µg/mL (≈ 18.2 µM) in data set [1]; 10 µg/mL (≈ 18.2 µM) in the data set with HT-29 (colon carcinoma); 30 µg/mL (≈ 54.6 µM) in the data set with MCF-7 (breast carcinoma); 4 µg/mL (≈ 7.28 µM) in the data set with Daoy (glioblastoma). Also, the half-inhibitory concentration (IC50) in the data set with SK-MEL-2 (melanoma) is more than 10 µg/mL.

`CC(C)[C@@H]1CC[C@]2(C(=O)O)CC[C@]3(C)[C@H](CC[C@@H]4[C@@]5(C)CC[C@H](N)C(C)(C)[C@@H]5CC[C@]43C)[C@@H]12` [Compound 86, (1S,3aS,5aR,5bR,7aR,9S,11aR,11bR,13aR,13bR)-9-amino-1-isopropyl-5a,5b,8,8,11a-pentamethylicosahydro-1H-cyclopenta[a]chrysene-3a-carboxylic acid]: the concentration for half-maximal inhibition (IC50) in the data set with A-375 (melanoma) worked out at 5 µg/mL (≈ 10.9 µM); with LN-229 (glioblastoma), 5 µg/mL (≈ 10.9 µM); in [1] it was 6 µg/mL (≈ 13.1 µM); in the data set with HT-29 (colon carcinoma), 5 µg/mL (≈ 10.9 µM); in the data set with MCF-7 (breast carcinoma) it was 6 µg/mL (≈ 13.1 µM); in the data set on Daoy (glioblastoma), 6 µg/mL (≈ 13.1 µM). The IC50 in the data set with SK-MEL-2 (melanoma) turned out to be 6 µg/mL (≈ 13.1 µM). Besides, the “cytotoxic potency across the cell line panel (in words)” value in data set [2] is on record as “potent across the entire cell line panel”.

With `C=C(C)[C@@H]1CC[C@]2(C(=O)O)CC[C@]3(C)[C@H](CC[C@@H]4[C@@]5(C)CC[C@H](NCCc6ccc(O)cc6)C(C)(C)[C@@H]5CC[C@]43C)[C@@H]12` [Compound 82, (1R,3aS,5aR,5bR,7aR,9S,11aR,11bR,13aR,13bR)-9-(4-hydroxyphenethylamino)-5a,5b,8,8,11a-pentamethyl-1-(prop-1-en-2-yl)icosahydro-1H-cyclopenta[a]chrysene-3a-carboxylic acid], the IC50 in the data set on A-375 (melanoma) came out at 5 µg/mL (≈ 8.68 µM); in the data set on LN-229 (glioblastoma), 5 µg/mL (≈ 8.68 µM); in data set [1], 6 µg/mL (≈ 10.4 µM); in the data set with HT-29 (colon carcinoma), 4 µg/mL (≈ 6.95 µM); with MCF-7 (breast carcinoma), 6 µg/mL (≈ 10.4 µM); in the data set on Daoy (glioblastoma), 5 µg/mL (≈ 8.68 µM). In the data set with SK-MEL-2 (melanoma), the IC50 came to 5 µg/mL (≈ 8.68 µM). Moreover, in [2], the “cytotoxic potency across the cell line panel (in words)” value is reported as “potent across the entire cell line panel”.

Consider `C=C(C)[C@@H]1CC[C@]2(COC(=O)CBr)CC[C@]3(C)[C@H](CC[C@@H]4[C@@]5(C)C=C(C#N)C(=O)C(C)(C)[C@@H]5CC[C@]43C)[C@@H]12` [Compound 39, ((1R,3aS,5aR,5bR,7aR,11aR,11bR,13aR,13bR)-10-cyano-5a,5b,8,8,11a-pentamethyl-9-oxo-1-(prop-1-en-2-yl)-2,3,3a,4,5,5a,5b,6,7,7a,8,9,11a,11b,12,13,13a,13b-octadecahydro-1H-cyclopenta[a]chrysen-3a-yl)methyl 2-bromoacetate], for which the IC50 in the data set with A-375 (melanoma) was 4 µg/mL (≈ 6.84 µM); in the data set on LN-229 (glioblastoma), 7 µg/mL (≈ 12 µM); in data set [1] it was 7 µg/mL (≈ 12 µM); in the data set with HT-29 (colon carcinoma), 6 µg/mL (≈ 10.3 µM); with MCF-7 (breast carcinoma), 13 µg/mL (≈ 22.2 µM); in the data set on Daoy (glioblastoma), less than 2 µg/mL. Further, the IC50 with SK-MEL-2 (melanoma) was 20 µg/mL (≈ 34.2 µM). Also, the “caspase activation in SK-MEL-2 (in words)” value with SK-MEL-2 cells was “induced caspase activation”.
